Measured values reported in patent US10501453B2, “Benzothiazole or benzoxazole compounds as SUMO activators” (Icahn School of Medicine at Mount Sinai, priority 2012, dated 2019).

Assays:
[1] = tested on: SERCA2a; assay: Endogenous SERCA2a SUMOylation profiling and protein expression in ARVMs; type: cell-based, rat
Procedure: Calcium-tolerant adult rat ventricular myocytes (ARVMs) were obtained from hearts of male Sprague-Dawley rats (250 to 300 g). The heart was excised and perfused with a standard enzymatic technique. ARVMs were plated on multi-chambered plates or culture dishes, pre-coated with laminin 2 μg/cm^2, at a density of 10^5 cells/cm^2 in DMEM without L-glutamine supplemented with 10 mmol/l HEPES, 3.7 mg/ml NaHCO3, 1 mg/ml glucose, 0.11 mg/ml sodium pyruvate, 2 mg/ml bovine serum albumin, 2 mmol/1 L-camitine, 5 mmol/1 creatine, 5 mmol/1 taurine, 1% penicillin-streptomycin, and 1% gentamycin. Following isolation, cells were allowed to settle for 1 hour. Cultures were incubated at 37° C., in an atmosphere of 5% CO2-95% air. Fresh medium was added gently as medium was being drawn off until the cultures had been thoroughly washed. Only quiescent, rod-shape cardiac myocytes were selected for IonOptix experiments.
Equal amounts of protein from either small molecule treated or DMSO treated cells or immunoprecipitates were resolved by 7.5% SDS-PAGE and transferred to nitrocellulose membranes (Bio-Rad, catalog no. 162-0112). The membranes were blocked for 1 hour at room temperature with 5% non-fat milk (Cell Signaling Technology Inc., catalog no. 9999) in TBST (10 mM Tris-HCl, 150 mM NaCl, and 0.05% tween-20, pH 8.0). […]
The effects of the Example compound was examined on isolated rat cardiomyocytes shortening and relaxation parameters. […] Effects of Example 1 on mechanical properties of the ARVMs were assessed using a video-based edge detection system (IonOptix). The time constant of the increase of force during the stretch decreased (tau), percentage of peak shortening (PS), maximal rate of relaxation and contraction were analyzed at 24 hrs postincubation of the compounds in culture media (N=10 ARVMs). The mechanical data were analyzed with student's t-test (FIG. 2A, P<0.05 compared to the DMSO treated cells). SERCA2a SUMOylation profiling was analyzed in a same set of ARVMs (FIG. 2B, WCL, whole cell lysates; S-SERCA2a, SUMOylated SERCA2a). […]

[2] = biological target: SUMO E2 enzyme, UBC9; assay: Transfer of activated SUMO-1 from SUMO E1 to SUMO E2 enzyme UBC9 (gel-based assay); type: biochemical
[3] = tested on: Serca2 KO mice; assay: Hemodynamics in Serca2 knockout mice; type: in vivo, mouse; details: before vs after infusion
Description: Adult mice with an inducible cardiomyocyte-specific excision of the Atp2a2 (Serca2) gene (Serca2 KO) were used. Four weeks after induction of Serca2 gene excision, the mice display a substantial reduction in systolic and diastolic function (FIG. 11a). […] The decay constant, tau value was nearly 1.3-fold (Serca2 KO, […]; WT, […], p<0.001) larger in Serca2 KO mice compared with WT control (FIG. 11b). The expression of SERCA2a was completely lacking in Serca2 KO mice (FIG. 11c).
Hemodynamic parameters obtained before and after infusion of Example 1 were compared. […] The dose-dependent enhancement of cardiac contractility disappeared in Serca2 KO mice (FIG. 6b).

[4] = tested on: NCI-60 human tumor cell; assay: NCI-60 human tumor cell screen; type: cell-based; details: NCI-60 set
Procedure: The NCI-60 human tumor cell screen used by the National Cancer Institute's Developmental Therapeutics Program was performed on Example 1. The NCI-60 set includes leukemia, lymphomas, and carcinomas of ovarian, renal, breast, prostate, colon, lung and CNS origin.

COc1ccc(-c2nnc(Nc3nc4c(OC)cccc4s3)o2)cc1 [Example 1, N-(4-methoxybenzo[d]thiazol-2-yl)-5-(4-methoxyphenyl)-1,3,4-oxadiazol-2-amine]
levels of SERCA2a SUMOylation with increasing amount of compound ([1]; dose response): increased levels of SERCA2a SUMOylation
protein expression levels of E1, E2 enzymes, SERCA2a and SUMO-1 ([1]; dose response): not changed
endogenous SERCA2a SUMOylation ([1]; isolated rodent adult cardiomyocytes): significantly increased
EC50 [2]: 10.2 ± 0.28 µM
hemodynamic parameters in Serca2 KO mice [3]: did not induce any improvements
cancer cell growth and proliferation [4]: did not induce cancer cell growth and proliferation
